Source: patent US9216991B2 (Ares Trading S.A., priority 2012, dated 2015)

What was measured:
[1] = molecular target: T1, IRAK4 (Homo sapiens, UniProt Q9NWZ3); experiment: IRAK4 Enzymatic Assay; format: biochemical; conditions: His-TEV-IRAK4 20 ng/well, ATP 2 μM, STK1-biotin peptide 300 nM, 3 hours at 30° C., FlashPlate radioactivity
T1 construct: His (N); TEV cleavage site (N)
T1 sequence (Q9NWZ3 1-460): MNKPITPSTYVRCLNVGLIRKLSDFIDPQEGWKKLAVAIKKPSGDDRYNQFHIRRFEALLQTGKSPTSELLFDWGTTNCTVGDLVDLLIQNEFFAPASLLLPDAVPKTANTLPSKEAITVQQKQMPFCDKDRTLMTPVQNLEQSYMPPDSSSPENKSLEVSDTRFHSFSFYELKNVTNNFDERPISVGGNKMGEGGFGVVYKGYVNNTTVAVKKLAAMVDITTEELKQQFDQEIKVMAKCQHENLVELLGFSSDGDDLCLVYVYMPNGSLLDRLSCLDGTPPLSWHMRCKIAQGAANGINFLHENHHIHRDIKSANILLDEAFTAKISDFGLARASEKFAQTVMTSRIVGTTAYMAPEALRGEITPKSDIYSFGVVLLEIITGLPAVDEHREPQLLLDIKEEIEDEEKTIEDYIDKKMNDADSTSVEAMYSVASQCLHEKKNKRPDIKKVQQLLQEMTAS
Summary of the method: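 Radiometric FlashPlate readout: biotin-STK1 substrate (300 nM) captured on streptavidin after EDTA stop and washes. Reaction used His-TEV-IRAK4 (20 ng/well), 2 μM [^33P]-spiked ATP and compound (1 nM-20 μM), incubated 3 h at 30 °C in 50 mM HEPES pH 7.0, 10 mM MgCl2, 5 mM MnCl2, 2 mM DTT.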

IC50 [1] [nM] | melting point [°C] | SMILES
< 100 | 172 to 179.2 | Cn1cc(-c2cccc(-c3ncc(-c4cnn(C5CCCC(S(C)(=N)=O)C5)c4)cn3)c2)cn1 (stereo not shown) [Example 288, imino(methyl)(3-(4-(2-(3-(1-methyl-1H-pyrazol-4-yl)phenyl)pyrimidin-5-yl)-1H-pyrazol-1-yl)cyclohexyl)-λ6-sulfanone]
< 100 | 190.1 to 201.7 | Cn1cc(-c2cccc(-c3ncc(-c4cnn([C@H]5CC[C@]6(CO)COC[C@]6(O)C5)c4)cn3)c2)cn1 (single isomer, unassigned) [Example 280]
